Among the data in patent US20100029682A1, “NOVEL CHROMENE AND THIOCHROMENE CARBOXAMIDE DERIVATIVES, METHODS FOR PREPARING SAME AND THERAPEUTIC APPLICATIONS OF SAME” (priority 2006, published 2010) are melting point values, retold here.

For orientation: melting point means the temperature, or range, at which the solid turns liquid.

Counter-ions that a name gives are not always drawn.

Compound `COc1ccccc1N1CCN(CCCCNC(=O)C2=Cc3c(Br)ccc(OC)c3OC2)CC1` (as salt: HCl) [Example 50, 5-Bromo-8-methoxy-2H-chromene-3-carboxylic acid {4-[4-(2-methoxyphenyl)piperazin-1-yl]-butyl}-amide] gave a melting point of 176 °C.

Turning to `COc1ccc(Br)c2c1OCC(C(=O)NCCCCN1CCN(c3cccc(Cl)c3Cl)CC1)=C2` (as salt: HCl) [Example 51, 5-Bromo 8 methoxy-2H-chromene-3-carboxylic acid {4-[4-(2,3-dichlorophenyl)-piperazin-1-yl]-butyl}-amide], the melting point came to 205 °C.

As to `COc1ccc(Br)c2c1OCC(C(=O)NCCCCN1CCN(c3cccc(C#N)c3)CC1)=C2` (as salt: HCl) [Example 52, 5-Bromo-8-methoxy-2H-chromene-3-carboxylic acid {4-[4-(3-cyanophenyl)piperazin-1-yl]-butyl}-amide], the melting point was 155 °C.

As to `O=C(NCCCCN1CCN(c2cccc(O)c2)CC1)C1=Cc2ccccc2OC1` (as salt: HCl) [Example 53, 2H Chromene-3-carboxylic acid {4-[4-(3-hydroxyphenyl)-piperazin-1-yl]-butyl}-amide], the melting point was determined as 199 °C.

`COc1ccc2c(c1)C=C(C(=O)NCCCCN1CCN(c3ccccc3OC)CC1)CO2` (as salt: HCl) [Example 54, 6-Methoxy-2H-chromene-3-carboxylic acid {4-[4-(2-methoxyphenyl)piperazin-1-yl]-butyl}-amide]: the melting point was determined as 165 °C.

`COc1ccc2c(c1)C=C(C(=O)NCCCCN1CCN(c3cccc(Cl)c3Cl)CC1)CO2` (as salt: HCl) [Example 55, 6-Methoxy-2H-chromene-3-carboxylic acid {4-[4-(2,3-dichlorophenyl)-piperazin-1-yl]-butyl}-amide]: the melting point stood at 205 °C.

The compound `COc1ccc2c(c1)C=C(C(=O)NCCCCN1CCN(c3cccc(C#N)c3)CC1)CO2` (as salt: HCl) [Example 57, 6-Methoxy-2H-chromene-3-carboxylic acid {4-[4-(3-cyanophenyl)-piperazin-1-yl]-butyl}-amide] displayed a melting point of 159 °C.

With `O=C(NCCCCN1CCN(c2ccccc2O)CC1)C1=Cc2ccccc2OC1` (as salt: HCl) [Example 58, 2H-Chromene-3-carboxylic acid {4-[4-(2-hydroxyphenyl)-piperazin-1-yl]-butyl}-amide], the melting point is 189 °C.

Take `O=C(NCCCCN1CCN(c2ccc(O)cc2)CC1)C1=Cc2ccccc2OC1` (as salt: HCl) [Example 59, 2H-Chromene-3-carboxylic acid {4-[4-(4-hydroxyphenyl)-piperazin-1-yl]-butyl}-amide]: the melting point turned out to be 236 °C.

The compound `COc1ccccc1N1CCN(CCCCNC(=O)C2=Cc3ccccc3OC2)CC1` (as salt: hydrochloride) [Example 1, 2H-Chromene 3-carboxylic acid {4-[4-(2-methoxyphenyl)-piperazin-1-yl]-butyl}-amide] registered a melting point of 224 °C.

As to `O=C(NCCCCN1CCN(c2cccc(Cl)c2Cl)CC1)C1=Cc2ccccc2OC1` (as salt: hydrochloride) [Example 2, 2H-Chromene-3-carboxylic acid {4-[4-(2,3-dichlorophenyl)-piperazin-1-yl]-butyl}-amide], the melting point stood at 201 °C.

`N#Cc1cccc(N2CCN(CCCCNC(=O)C3=Cc4ccccc4OC3)CC2)c1` (as salt: hydrochloride) [Example 14, 2H-Chromene-3-carboxylic acid {4-[4-(3-cyanophenyl)-piperazin-1-yl]-1-butyl}-amide] registered a melting point of 229 °C.

`CCOC(=O)c1cccc(N2CCN(CCCCNC(=O)C3=Cc4ccccc4OC3)CC2)c1` (as salt: hydrochloride) [Example 21, 3-(4-{4-[(2H-Chromene-3-carbonyl)-amino]-butyl}-piperazin-1-yl)-benzoic acid ethyl ester hydrochloride] returned a melting point of 229 °C.
